# Assay results: ChEMBL document CHEMBL1136782, “Further studies on 2,4-diamino-5-(2',5'-disubstituted benzyl)pyrimidines as potent and selective inhibitors of dihydrofolate reductases from three major opportunistic pathogens of AIDS” (J Med Chem, 2003)
# Key:
# [1] = target: T1, Bifunctional dihydrofolate reductase-thymidylate synthase (Toxoplasma gondii, UniProt Q07422)
# T1 sequence (Q07422 whole entry): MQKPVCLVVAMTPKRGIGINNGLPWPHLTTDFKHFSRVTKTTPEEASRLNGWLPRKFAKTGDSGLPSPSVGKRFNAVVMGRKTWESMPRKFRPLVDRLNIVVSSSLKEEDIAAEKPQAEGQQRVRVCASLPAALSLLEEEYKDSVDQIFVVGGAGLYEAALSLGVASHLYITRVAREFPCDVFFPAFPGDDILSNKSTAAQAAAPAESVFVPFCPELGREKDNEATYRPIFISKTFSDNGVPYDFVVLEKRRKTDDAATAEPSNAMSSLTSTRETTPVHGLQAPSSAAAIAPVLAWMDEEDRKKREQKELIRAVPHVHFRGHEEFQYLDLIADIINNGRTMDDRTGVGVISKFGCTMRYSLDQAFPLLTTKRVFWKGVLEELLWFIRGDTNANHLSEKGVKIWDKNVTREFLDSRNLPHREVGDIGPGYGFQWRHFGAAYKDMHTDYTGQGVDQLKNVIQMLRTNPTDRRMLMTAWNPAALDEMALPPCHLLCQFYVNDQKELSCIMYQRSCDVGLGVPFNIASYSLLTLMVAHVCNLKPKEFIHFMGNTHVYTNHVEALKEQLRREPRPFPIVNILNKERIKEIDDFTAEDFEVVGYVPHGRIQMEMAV
# Description: Inhibitory activity against Dihydrohydrofolate reductase(DHFR) of Toxoplasma gondii
# [2] = Relative affinity for Dihydrofolate reductase of rat liver and Mycobacterium avium
# Dihydrofolate reductase [3] = target: T2, Dihydrofolate reductase (Mycobacterium avium, UniProt O30463)
# T2 sequence (O30463 whole entry): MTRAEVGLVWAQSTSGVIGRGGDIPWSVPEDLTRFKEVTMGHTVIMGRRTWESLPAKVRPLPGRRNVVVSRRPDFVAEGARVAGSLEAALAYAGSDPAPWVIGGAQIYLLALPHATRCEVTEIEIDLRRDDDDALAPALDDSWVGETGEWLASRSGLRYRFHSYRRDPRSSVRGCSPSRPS
# Description: Inhibition of Dihydrohydrofolate reductase(DHFR) of Mycobacterium avium
# Dihydrofolate reductase [4] = target: T3, Dihydrofolate reductase (Rattus norvegicus, UniProt Q920D2)
# T3 sequence (Q920D2 whole entry): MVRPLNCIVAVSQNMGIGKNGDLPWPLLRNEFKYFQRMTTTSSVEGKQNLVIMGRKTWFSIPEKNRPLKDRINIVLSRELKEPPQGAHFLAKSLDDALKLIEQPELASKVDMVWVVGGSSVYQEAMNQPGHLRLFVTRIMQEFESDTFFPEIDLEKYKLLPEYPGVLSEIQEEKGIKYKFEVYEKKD
# Description: Inhibitory activity against Dihydrohydrofolate reductase (DHFR) of rat
SMILES,IC50 [1],also measured
Nc1nc(N)c2c(CNc3cccc4c3CCCC4)c[nH]c2n1,1100 nM,–
Cc1cccc(-c2nc3c(N)nc(N)nc3nc2N)c1,18 nM,–
Nc1nc(N)c2nc(-c3ccccc3)c(-c3ccccc3)nc2n1,240 nM,–
COc1ccc(C#CCOc2ccccc2C(=O)O)cc1Cc1cnc(N)nc1N,–,Selectivity index [2]: 170
COc1cc(Cc2cnc(N)nc2N)cc(OC)c1-n1cccc1,470 nM,–
Nc1nc(N)c2nc(CCSc3ccccc3)cnc2n1,770 nM,–
COc1ccc(C#CCCCC(=O)O)cc1Cc1cnc(N)nc1N,–,IC50 (Dihydrofolate reductase [3]): 7.8 nM
Nc1nc(N)c2nc(C(=O)c3ccccc3)c(-c3ccccc3)nc2n1,860 nM,–
COc1ccc(OCCCC(=O)O)cc1Cc1cnc(N)nc1N,–,IC50 (Dihydrofolate reductase [4]): 2700 nM
